Test results reported in patent publication US20220401428A1, “Method for Treatment of Alzheimer's Disease” (University of Kentucky Research Foundation, priority 2019, published 2022).

What was measured:
[1] = system: LRP1; assay: LRP1 protein expression in rat brain microvascular ECs (Western blot, immunofluorescence); format: cell-based
Text: To study the role of miRNA signaling in amylin-induced suppression of endothelial LRP1 expression, transfection of rat brain microvascular ECs was used with miR-103-3p (MCR01039)[…](SEQ ID NO: 5), miR-107-3p (MCR01045)[…](SEQ ID NO: 6) and control (MCH00000) (https://www.abmgood.com/mirna-mimic-negative-control-mch00000.html). Antagomir miR-103-3p (IH-320345-05-0005)(SEQ ID NO: 5), miR-107-3p (IH-320348-05-0005)(SEQ ID NO: 6) and negative control (IN-001005-01-05) (https://www.biocompare.com/22445-RNA/4995709-miRIDIAN-microRNA-Hairpin-Inhibitor-Negative-Control-1-5-nmol/#productspecs) (Dharmacon Inc.) were used in an attempt to rescue LRP1 expression. All transfections were done using RNAiMAX (Invitrogen) as per manufacturer's recommended protocol. Briefly, ECs were plated at 50% confluency in 6-well plates followed by co-transfection with either 100 nM of 103-3p and 107-3p mimics or antagomirs along with their respective negative controls. After 12-hours, antagomir-treated cell groups were further treated with 10 uM human amylin for 24-hours. After 36-hours of transfection, cells were harvested for Western blot analysis.
In immunofluorescence experiments, formalin-fixed, paraffin-embedded human brain tissue was used and processed as previously described^16,18,39, brain capillaries from HIP and WT rats isolated as previously described^18. and cultured ECs. Anti-amylin (1:200; clone E5; SC-377530; Santa Cruz), anti-collagen IV (1:500; ab6586; abcam), anti-alpha smooth muscle actin-Alexa Fluor 405 (1:200; ab210128, abcam), anti-caveolin-1 (1:100; sc-894; Santa Cruz, Tex.), anti-LRP1 (1:500; sc-57351; Santa Cruz), anti-4HNE (1:200; ab46545; abcam) were the primary antibodies. Secondary antibodies were: Alexa Fluor 488 conjugated anti-mouse IgG (1:300; A11029; Invitrogen), Alexa Fluor 568 conjugated anti-rabbit IgG (1:200; A11036; Invitrogen), Alexa Fluor 568 conjugated anti-mouse IgG (1:300; A11004; Invitrogen). Nuclei were counterstained with DAPI mounting media. For triple staining of human brain tissues, smooth muscle actin-Alexa Fluor 405 antibody was added after staining with human amylin and collagen IV; DAPI free mounting media was used. For Thioflavin S staining, after secondary antibody incubation, brain slides were incubated in 0.5% Thioflavin S for 30 minutes at room temperature. Slides were then incubated for 3 minutes in 70% ethanol, 5 minutes in 0.2% Sudan black before washing and mounting. Immunocytochemistry was performed as described previously (39, 40).
Western blot analysis was performed on isolated brain capillaries, brain tissue homogenate and plasma from rats. Tissues were processed as described previously^16,18,28,39. RIPA buffer with 2% SDS was used to retrieve Aβ monomers from frozen brain samples^41. […]

[2] = system: ADHIP rats; assay: Hypoxia markers in brain and brain capillary lysates of sEHi-treated ADHIP rats; format: in vivo, rat; settings: treated vs untreated, HIF-1α, HIF-2α, Arg-1, Arg-2, arginase activity, mitochondrial DNA
Procedure: Pharmacological treatment on animals To increase plasma eicosanoids levels, the animals were treated with TPPU (1-Trifluoromethoxyphenyl-3-(1-propionylpiperidin-4-yl) urea, N-[1-(1-Oxopropyl)-4-piperidinyl]-N′-[4-(trifluoromethoxy)phenyl]-urea), a soluble epoxide hydrolase inhibitor (sEHi) (HY-101294, MedChem Express). […] 12 months old (n=5; early-stage) and 16 months old (n=6; late stage) animals were subjected to treatment with sEHi. For treatment at early-stage, the drug was administered through drinking water (3 mg/L, daily) and intravenous injection (20 μg/kg, once a week) to ensure equal intake for each animal. […] Amount of water intake was measured daily. […]
Enzyme-linked immune absorbance assay (ELISA) Levels of amylin in human brain samples were measured using sandwich amylin ELISA from Millipore (EZHA-52K). Levels of amylin in human CSF and animal samples were measured using amylin sandwich ELISA from R&D system (EIA-AMY). Aβ levels in animal CSF were measured using high sensitivity electrochemiluminescence ELISA (MSD 6E10, K15200G-2, Meso Scale Discovery). […]
Arginase activity Arginase activity in rat brain capillaries were measured using arginase activity kit (MAK112, Sigma). […]
Mitochondria DNA extraction and analysis Protocol for quantifying mitochondrial DNA content was described in Ref 32. […] DNA purity was assessed by ensuring the A260/A280 ratio was >1.8. […]

[3] = reference 24; cited from earlier work
[4] = system: ADHIP rats; assay: Histology and immunohistochemistry of brains of sEHi-treated ADHIP rats; format: in vivo, rat; settings: treated vs untreated; for extent of axonal degeneration: MBP and LFB staining; for amylin deposition in brain capillaries: immunohistochemical analysis
Procedure: Pharmacological treatment on animals To increase plasma eicosanoids levels, the animals were treated with TPPU (1-Trifluoromethoxyphenyl-3-(1-propionylpiperidin-4-yl) urea, N-[1-(1-Oxopropyl)-4-piperidinyl]-N′-[4-(trifluoromethoxy)phenyl]-urea), a soluble epoxide hydrolase inhibitor (sEHi) (HY-101294, MedChem Express). […] 12 months old (n=5; early-stage) and 16 months old (n=6; late stage) animals were subjected to treatment with sEHi. For treatment at early-stage, the drug was administered through drinking water (3 mg/L, daily) and intravenous injection (20 μg/kg, once a week) to ensure equal intake for each animal. For treatment at late-stage, the drug was administered through and intravenous injection (20 μg/kg, daily, 1 month) and then through drinking water (3 mg/L, daily, 1 month). Amount of water intake was measured daily.
Histology and demyelination scoring Myelination in rat brains was analyzed by staining with Luxol fast blue (LFB) dye. Scoring analysis method was performed as described previously^15. Microhemorrhages in rat brains were stained with Prussian blue dye and analyzed as described previously^15. Congo red staining was performed on the human brains as previously^11 described.
Immunohistochemistry. Formalin fixed, paraffin embedded brain and pancreas tissues from humans, ADHIP, AD, WT, and AD-AKO rats were used. Tissues were processed as previously described^11,14,15,27. After tissue rehydration, the endogenous peroxidase was quenched in 3% H2O2 in methanol for 30 minutes. For amylin and Aβ antigen retrieval, sections were treated with 100% formic acid for 5 minutes, followed by 0.5% pepsin digestion in 5 mM HCl for 20 minutes at 37° C. To retrieve intra-neuronal amylin antigen (rat brains) as well as other antigens, tissue sections were heated in citrate buffer for 30 minutes. Non-specific antibody binding was blocked by 15% horse serum for 1 hour at room temperature (RT). Primary antibodies against amylin, human Aβ, Iba1, CD68 or myelin basic protein (MBP) was incubated on slides overnight at 4° C. Sections were then washed and incubated with secondary antibodies. Signal was developed with DAB or AEC peroxidase substrate. For co-staining with two antibodies, after the signal was developed for the first antibody, sections were then rinsed in water. Non-specific antibody binding was blocked with 10% normal goat serum, and the sections were incubated with the second primary antibody overnight at 4° C. Sections were then washed and incubated with AP-conjugated secondary antibody, and developed with StayGreen/AP chromogen substrate. Sections were mounted with aqueous mounting medium. The specificity of the amylin antibody in both human and rat brain tissues was established in previous studies^11,14,15,27.
Imaging analysis Wide-field images of stained tissue sections were generated by stitching images obtained from the 10× objective lens (Nikon NIS-Element Software). Higher magnification images for specific tissue area were obtained using the 40× objective lens. The immunoreactivity signal for each antibody was analyzed by ImageJ. Clearly defined-signal pixels were selected to establish the RGB profile of the color of interest. The threshold for each color signal was adjusted to reduce background noise. The established RGB profile and threshold were applied to a Macro script command, using Color Deconvolution plugin in ImageJ. The staining area was calculated using the following equation: […]

[5] = system: ADHIP rats; assay: Behavior testing of sEHi-treated ADHIP rats (composite z-score); format: in vivo, rat; settings: late stage (>16 months old) and early stage (12 months old) cohorts, treated vs untreated
Procedure: Pharmacological treatment on animals To increase plasma eicosanoids levels, the animals were treated with TPPU (1-Trifluoromethoxyphenyl-3-(1-propionylpiperidin-4-yl) urea, N-[1-(1-Oxopropyl)-4-piperidinyl]-N′-[4-(trifluoromethoxy)phenyl]-urea), a soluble epoxide hydrolase inhibitor (sEHi) (HY-101294, MedChem Express). […] 12 months old (n=5; early-stage) and 16 months old (n=6; late stage) animals were subjected to treatment with sEHi. For treatment at early-stage, the drug was administered through drinking water (3 mg/L, daily) and intravenous injection (20 μg/kg, once a week) to ensure equal intake for each animal. […] Amount of water intake was measured daily.
Behavior testing Forelimb use test/Cylinder test, inclined plane, hind limb clasping test. […] Animal forelimb deficit was evaluated by forelimb-to-wall contact time in cylinder test. […] Abnormalities in the animal hind limbs were assessed by scoring the severity of hind limb clasping.
Rotarod assessment Motor coordination and balance were tested by the rotarod (Rotamex 5, Columbus Instrument, OH) test^27. […] The remaining read-outs were averaged, and a group average was calculated for each genotype. […]
Morris Water Maze Spatial learning and long-term memory retention were tested in a 1.5 m diameter Morris Water Maze, as previously described^15. […] Trials were recorded by EthoVision XT software (Noldus, VA). […]

[6] = listed as inhibitor of soluble epoxide hydrolase (sEH)

## miR-103 and miR-107 mimics: co-transfected miRNA mimics miR-103-3p (SEQ ID NO: 5) and miR-107-3p (SEQ ID NO: 6) (chain 1 AGCAGCAUUGUACAGGGCUAUGA; chain 2 AGCUUCUUUACAGUGUUGCCUUGU; listed as RNA, chemistry not given here)
[1]; ECs co-transfected with 100 nM mimics, 24 hours, vs miR-control, Western blot
  average LRP1 expression level: lower

## CCC(=O)N1CCC(NC(=O)Nc2ccc(OC(F)(F)F)cc2)CC1 [sEHi, 1-(1-propanoylpiperidin-4-yl)-3-[4-(trifluoromethoxy)phenyl]urea]
[2]
  brain accumulation of hypoxia markers: lowered brain accumulation of hypoxia markers
[3]
  level of circulating amylin: lower the level of circulating amylin
[4]
  extent of axonal degeneration: ameliorated
  amylin deposition in brain capillaries: reduced capillary amylin deposition
[4]; [6]
  extent of axonal degeneration: reduced
  amylin deposition in brain capillaries: reduced amylin deposition in brain capillaries
[4]; Prussian blue
  number of brain microhemorrhages: reduced
[5]
  behavior deficits: attenuation of functional decline
[5]; [6]
  behavior deficits: reduced behavior deficits

## rat amylin
[1]; ECs, 10 μM, 24-hour incubation, confocal microscopy and Western blot
  LRP1 protein levels: no effect
